IC50 data for 18 compounds are collected here from ChEMBL document CHEMBL3430850, “MMV Malaria Box gametocyte standard membrane feeding assay screening”.

By pIC50 is commonly meant −log10 of the IC50, conventionally taken in molar units.

pIC50: −log10 of the molar value.

One test can be described thus: MMV: Gametocytes from P. falciparum reporter strain NF54-deltaPf47-5'hsp70-GFP::Luc were exposed to serial dilutions of compounds for 24 hours. Subsequently, compounds were washed out and gametocytes were fed to Anopheles stephensi mosquitoes. Three compounds were tested at six dilutions in one experimental run. All conditions were tested in duplicate in two different experimental runs. Each run included duplicate feeders for vehicle (0.1% DMSO) and positive (10 uM dihydroartemisinin) controls. Eight days post-feeding, oocyst densities were determined by assessment of luminescence signals in homogenized mosquitoes. Up to 24 mosquitoes were analysed per feeder. Luminescence data from individual mosquitoes were normalized against the average signals from the vehicle control feeds that were included in each run. IC50 values were determined by fitting a four-parameter logistic regression model using maximum likelihood optimization to find the best fit. It counts as functional, Plasmodium falciparum.
Details: not given; call rule not given here
Consider `CC1CN(C(=O)c2sc3ccccc3c2Cl)CC(C)O1` (stereo not drawn), for which the IC50 result is reported as “Not active”.
As for `OC(CNC1CCCCC1)Cn1c2ccc(I)cc2c2cc(I)ccc21` (stereo not drawn), the IC50 result is recorded as “Not active”.

Still in this test, the particulars now being: read-out: IC50.
Consider `O=C(NC1CCN(Cc2ccccc2)CC1)c1cc(C(=O)NC2CCN(Cc3ccccc3)CC2)cc(C(=O)NC2CCN(Cc3ccccc3)CC2)c1`, for which the pIC50 is 5.93.
Same read-out and setting: to `CN(C)CCCNc1c2ccccc2nc2ccccc12` belongs 5.93.
`CN(C)c1ccc(C(O)(c2ccc(N(C)C)cc2)c2ccc(N(C)C)cc2)cc1` [METHYLROSANILINE]: the pIC50 was 7.41.
In the case of `Cc1ccc(-c2cc3c(nn2)-c2ccccc2C3=O)cc1`, the pIC50 is 5.90.
As for `COc1ccc(C2c3ccc4ccccc4c3Oc3ncn(CCCN(C)C)c(=N)c32)cc1` (stereo not drawn), the pIC50 was 7.23.
On the same count and under the same terms, to `CCN(CC)CCn1c(=N)n(CC(O)c2ccc(Cl)c(Cl)c2)c2ccccc21` (stereo not drawn) belongs 5.78; to `COC(=O)c1ccc(C2C3=C(O)CC(c4ccc(F)cc4)CC3=Nc3ccccc3N2C(=O)c2ccccc2)cc1` (stereo not drawn), 5.07.
`CCOC(=O)C1=C(C)N=c2sc(=Cc3cc(Cl)ccc3O)c(=O)n2C1c1ccc(OC)cc1` (stereo not drawn): the pIC50 was 5.49.
Turning to `Cc1sc2ncnc(Sc3nc4ccccc4[nH]3)c2c1C`, the pIC50 was 5.89.
As to `OC1CCCCC1C1(NC(=S)Nc2ccccc2)CCCCC1` (stereo not drawn), the pIC50 was 5.76.
As to `CC1=C(CC(=O)c2cccc([N+](=O)[O-])c2)C(=O)c2ccccc2C1=O`, the pIC50 is 5.85.
Turning to `Clc1cc(Br)ccc1-c1ccc(CNCC2CCNCC2)o1`, the pIC50 was 7.13.
Take `CCOC(=O)c1cnc2ccc(CC)cc2c1O`: the pIC50 is 6.96.
Consider `CCOC(=O)c1cn(CC)c2cc(N3CCCCC3)c(F)cc2c1=O`, for which the pIC50 is 7.02.
Take `CC(C)(C)c1ccc2c(c1)CN(Cc1ccc(Cl)cc1)CO2`: the pIC50 was 6.23.
With `COc1ccc(-c2c(C)nn3c(N)c(C#N)cnc23)cc1OC`, the pIC50 is 5.44.
